# Literature values in patent publication US6875793B2, “Once-a-day controlled release sulfonylurea formulation” (Penwest Pharmaceuticals Co., priority 1997, dated 2005).
# Columns and labels:
# insulin secretion = settings: after an oral dose, diabetic patients
smiles,measurement,setting,value
Cc1cnc(C(=O)NCCc2ccc(S(=O)(=O)NC(=O)NC3CCCCC3)cc2)cn1 [Glipizide],time to insulinotropic response to a meal,insulin secretion,≤ 30 min
CCCCNC(=O)NS(=O)(=O)c1ccc(C)cc1 [Tolbutamide],solubility in water,water,practically insoluble
CCCNC(=O)NS(=O)(=O)c1ccc(Cl)cc1 [Chlorpropamide],solubility in water at pH 6.0,"water, pH 6.0",2.2 mg/ml
same,solubility in water at pH 7.3,"water, pH 7.3",practically non-soluble
COc1ccc(Cl)cc1C(=O)NCCc1ccc(S(=O)(=O)NC(=O)NC2CCCCC2)cc1 [Glyburide],solubility in organic solvents,organic solvents,soluble
same,solubility in water,water,sparingly soluble
CC(=O)c1ccc(S(=O)(=O)NC(=O)NC2CCCCC2)cc1 [Acetohexamide],solubility in alcohol,alcohol,slightly soluble
same,solubility in alkali,"alkali, e.g., 0.1N sodium hydroxide, dilute solutions of alkali hydroxides",soluble
same,solubility in water,water,practically insoluble
Cc1ccc(S(=O)(=O)NC(=O)NN2CCCCCC2)cc1 [Tolazamide],solubility at pH 6.0 (mean urinary pH),pH 6.0,27.8 mg per 100 ml
same,solubility in water,water,relatively insoluble
